According to patent US10023570B2 (Array BioPharma, Inc., priority 2015, dated 2018):
Structures can show the parent of a compound that is named as a salt.

Biological target: human KDR protein in HEK-293 cells (Homo sapiens (Human), UniProt P35968)
Test: KDR Cell Assay (phospho-KDR in HEK-293 cells expressing inducible KDR)
Assay type: cell-based
Conditions: pKDR Cell HEK 10% FBS IC50, HEK-293 cells expressing inducible KDR, VEGF stimulated, 10% FBS
Protocol: The cellular potency of a compound inhibiting KDR kinase was determined in HEK-293 cells expressing an inducible human KDR protein. […] The cells were incubated for 1 hour with test compound in DMEM at a final DMSO concentration of 0.25%. […] The media was aspirated and 35 μL of a 1× lysis buffer was added. […] The lysate was stored at −80° C. until ready for assay. Phospho-KDR was measured using a phospho-KDR kit (Catalog #K151BOC) purchased from Meso Scale Diagnostics (Rockville, Md.) according to the manufacturer's instructions. All values are expressed as percent of percent of control (POC). The POC values were fitted to a 4 parameter logistic curve fit and the IC50 value is point where the curve crosses 50 POC.

Chain of human KDR protein in HEK-293 cells (P35968 20-1356): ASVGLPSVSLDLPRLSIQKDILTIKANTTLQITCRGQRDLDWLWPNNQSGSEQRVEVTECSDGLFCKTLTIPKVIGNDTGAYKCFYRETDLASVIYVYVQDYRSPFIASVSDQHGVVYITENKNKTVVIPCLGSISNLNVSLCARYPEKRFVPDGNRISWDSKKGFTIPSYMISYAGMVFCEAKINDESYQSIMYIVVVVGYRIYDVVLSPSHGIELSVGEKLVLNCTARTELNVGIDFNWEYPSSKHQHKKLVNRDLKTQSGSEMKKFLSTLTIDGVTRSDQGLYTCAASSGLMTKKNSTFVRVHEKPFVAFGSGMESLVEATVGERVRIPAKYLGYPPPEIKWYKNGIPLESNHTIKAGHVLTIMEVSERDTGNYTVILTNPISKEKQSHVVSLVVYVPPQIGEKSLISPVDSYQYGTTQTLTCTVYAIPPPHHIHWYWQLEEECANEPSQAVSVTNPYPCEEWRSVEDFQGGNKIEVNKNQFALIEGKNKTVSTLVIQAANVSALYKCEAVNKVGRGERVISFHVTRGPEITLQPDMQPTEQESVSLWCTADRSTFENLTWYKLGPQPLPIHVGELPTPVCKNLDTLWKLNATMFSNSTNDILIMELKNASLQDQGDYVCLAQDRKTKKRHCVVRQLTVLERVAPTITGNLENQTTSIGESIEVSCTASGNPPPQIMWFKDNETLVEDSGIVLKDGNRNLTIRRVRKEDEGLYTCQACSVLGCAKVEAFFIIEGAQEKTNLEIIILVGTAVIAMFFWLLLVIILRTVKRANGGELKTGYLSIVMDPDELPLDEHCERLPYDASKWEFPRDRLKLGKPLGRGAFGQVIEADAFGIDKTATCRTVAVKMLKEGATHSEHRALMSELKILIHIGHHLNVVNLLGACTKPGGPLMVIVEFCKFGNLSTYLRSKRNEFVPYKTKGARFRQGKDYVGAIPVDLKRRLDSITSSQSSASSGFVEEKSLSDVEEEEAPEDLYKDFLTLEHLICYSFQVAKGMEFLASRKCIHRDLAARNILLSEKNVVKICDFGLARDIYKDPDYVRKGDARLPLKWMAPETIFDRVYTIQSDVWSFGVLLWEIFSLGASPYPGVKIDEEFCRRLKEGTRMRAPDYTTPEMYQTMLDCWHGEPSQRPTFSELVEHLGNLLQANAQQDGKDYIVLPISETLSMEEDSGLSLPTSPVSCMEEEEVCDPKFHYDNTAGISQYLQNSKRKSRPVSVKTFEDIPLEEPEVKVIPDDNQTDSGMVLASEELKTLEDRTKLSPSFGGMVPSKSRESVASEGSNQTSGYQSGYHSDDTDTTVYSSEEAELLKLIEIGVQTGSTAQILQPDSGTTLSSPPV

## Cn1cc(-c2cc(-c3ccc(N4CCN(C(=O)[C@@H](O)Cc5ccccc5)CC4)nc3)c3c(C#N)cnn3c2)cn1 [Example 4]
  IC50: 328 nM

## Cn1cc(-c2cc(-c3ccc(N4CCN(C(=O)Cc5ccccn5)CC4)nc3)c3c(C#N)cnn3c2)cn1 [Example 5, 6-(1-methyl-1H-pyrazol-4-yl)-4-(6-(4-(2-(pyridin-2-yl)acetyl)piperazin-1-yl)pyridin-3-yl)pyrazolo[1,5-a]pyridine-3-carbonitrile]
  IC50: 243 nM

## Cn1cc(-c2cc(-c3ccc(N4CCN(C(=O)[C@@H](O)c5ccccc5)CC4)nc3)c3c(C#N)cnn3c2)cn1 [Example 6, (S)-4-(6-(4-(2-hydroxy-2-phenylacetyl)piperazin-1-yl)pyridin-3-yl)-6-(1-methyl-1H-pyrazol-4-yl)pyrazolo[1,5-a]pyridine-3-carbonitrile]
  IC50: 115 nM

## Cn1cc(-c2cc(-c3ccc(N4CCN(C(=O)C[C@@H](O)c5ccccc5)CC4)nc3)c3c(C#N)cnn3c2)cn1 [Example 7, (R)-4-(6-(4-(3-hydroxy-3-phenylpropanoyl)piperazin-1-yl)pyridin-3-yl)-6-(1-methyl-1H-pyrazol-4-yl)pyrazolo[1,5-a]pyridine-3-carbonitrile]
  IC50: 115 nM

## Cn1cc(-c2cc(-c3ccc(N4CCN(C(=O)C[C@H](O)c5ccccc5)CC4)nc3)c3c(C#N)cnn3c2)cn1 [Example 8, (S)-4-(6-(4-(3-hydroxy-3-phenylpropanoyl)piperazin-1-yl)pyridin-3-yl)-6-(1-methyl-1H-pyrazol-4-yl)pyrazolo[1,5-a]pyridine-3-carbonitrile]
  IC50: 98.9 nM

## Cn1cc(-c2cc(-c3ccc(N4CCN(C(=O)[C@H](O)Cc5ccccc5)CC4)nc3)c3c(C#N)cnn3c2)cn1 [Example 9, (R)-4-(6-(4-(2-hydroxy-3-phenylpropanoyl)piperazin-1-yl)pyridin-3-yl)-6-(1-methyl-1H-pyrazol-4-yl)pyrazolo[1,5-a]pyridine-3-carbonitrile]
  IC50: 32.7 nM

## Cn1cc(-c2cc(-c3ccc(N4CCN(C(=O)C(O)c5ccccc5F)CC4)nc3)c3c(C#N)cnn3c2)cn1 (stereo not drawn) [Example 10, 4-(6-(4-(2-(2-fluorophenyl)-2-hydroxyacetyl)piperazin-1-yl)pyridin-3-yl)-6-(1-methyl-1H-pyrazol-4-yl)pyrazolo[1,5-a]pyridine-3-carbonitrile]
  IC50: 47.4 nM

## Cn1cc(-c2cc(-c3ccc(N4CCN(C(=O)[C@H]5CC[C@@H](O)C5)CC4)nc3)c3c(C#N)cnn3c2)cn1 [Example 12, 4-(6-(4-((1S,3R)-3-hydroxycyclopentane-1-carbonyl)piperazin-1-yl)pyridin-3-yl)-6-(1-methyl-1H-pyrazol-4-yl)pyrazolo[1,5-a]pyridine-3-carbonitrile]
  IC50: 1190 nM

## C[C@@H](C(=O)N1CCN(c2ccc(-c3cc(-c4cnn(C)c4)cn4ncc(C#N)c34)cn2)CC1)c1ccccc1 [Example 14, (R)-6-(1-methyl-1H-pyrazol-4-yl)-4-(6-(4-(2-phenylpropanoyl)piperazin-1-yl)pyridin-3-yl)pyrazolo[1,5-a]pyridine-3-carbonitrile]
  IC50: 1780 nM

## C[C@H](C(=O)N1CCN(c2ccc(-c3cc(-c4cnn(C)c4)cn4ncc(C#N)c34)cn2)CC1)c1ccccc1 [Example 15, (S)-6-(1-methyl-1H-pyrazol-4-yl)-4-(6-(4-(2-phenylpropanoyl)piperazin-1-yl)pyridin-3-yl)pyrazolo[1,5-a]pyridine-3-carbonitrile]
  IC50: 643 nM

## Cn1cc(-c2cc(-c3ccc(N4CCN(C(=O)C(CO)c5ccccc5)CC4)nc3)c3c(C#N)cnn3c2)cn1 (stereo not drawn) [Example 16, 4-(6-(4-(3-hydroxy-2-phenylpropanoyl)piperazin-1-yl)pyridin-3-yl)-6-(1-methyl-1H-pyrazol-4-yl)pyrazolo[1,5-a]pyridine-3-carbonitrile]
  IC50: 435 nM

## Cn1cc(-c2cc(-c3ccc(N4CCN(C(=O)C[C@H](NC(=O)OC(C)(C)C)c5ccccc5)CC4)nc3)c3c(C#N)cnn3c2)cn1 [Example 17, (S)-tert-butyl (3-(4-(5-(3-cyano-6-(1-methyl-1H-pyrazol-4-yl)pyrazolo[1,5-a]pyridin-4-yl)pyridin-2-yl)piperazin-1-yl)-3-oxo-1-phenylpropyl)carbamate]
  IC50: 83.4 nM

## Cc1ccc(CC(=O)N2CCN(c3ccc(-c4cc(-c5cnn(C)c5)cn5ncc(C#N)c45)cn3)CC2)cn1 [Example 19, 6-(1-methyl-1H-pyrazol-4-yl)-4-(6-(4-(2-(6-methylpyridin-3-yl)acetyl)piperazin-1-yl)pyridin-3-yl)pyrazolo[1,5-a]pyridine-3-carbonitrile]
  IC50: 546 nM

## Cn1cc(-c2cc(-c3ccc(N4CCN(C(=O)Cc5ccnn5C)CC4)nc3)c3c(C#N)cnn3c2)cn1 [Example 20, 6-(1-methyl-1H-pyrazol-4-yl)-4-(6-(4-(2-(1-methyl-1H-pyrazol-5-yl)acetyl)piperazin-1-yl)pyridin-3-yl)pyrazolo[1,5-a]pyridine-3-carbonitrile]
  IC50: 1650 nM

## Cn1cc(-c2cc(-c3ccc(N4CCN(C(=O)C5CCCC5)CC4)nc3)c3c(C#N)cnn3c2)cn1 [Example 21, 4-(6-(4-(cyclopentanecarbonyl)piperazin-1-yl)pyridin-3-yl)-6-(1-methyl-1H-pyrazol-4-yl)pyrazolo[1,5-a]pyridine-3-carbonitrile]
  IC50: 540 nM

## Cn1cc(-c2cc(-c3ccc(N4CCN(C(=O)C[C@H](N)c5ccccc5)CC4)nc3)c3c(C#N)cnn3c2)cn1 [Example 23, (S)-4-(6-(4-(3-amino-3-phenylpropanoyl)piperazin-1-yl)pyridin-3-yl)-6-(1-methyl-1H-pyrazol-4-yl)pyrazolo[1,5-a]pyridine-3-carbonitrile dihydrochloride]
  IC50: 45.4 nM

## Cn1cc(-c2cc(-c3ccc(N4CCN(C(=O)C5(c6ccccc6)CCCC5)CC4)nc3)c3c(C#N)cnn3c2)cn1 [Example 24, 6-(1-methyl-1H-pyrazol-4-yl)-4-(6-(4-(1-phenylcyclopentanecarbonyl)piperazin-1-yl)pyridin-3-yl)pyrazolo[1,5-a]pyridine-3-carbonitrile]
  IC50: 960 nM

## Cn1cc(-c2cc(-c3ccc(N4CCN(C(=O)C5(c6ccccc6)CC5)CC4)nc3)c3c(C#N)cnn3c2)cn1 [Example 25, 6-(1-methyl-1H-pyrazol-4-yl)-4-(6-(4-(1-phenylcyclopropane-1-carbonyl)piperazin-1-yl)pyridin-3-yl)pyrazolo[1,5-a]pyridine-3-carbonitrile]
  IC50: 270 nM

## Cn1cc(-c2cc(-c3ccc(N4CCN(C(=O)C(C)(C)c5ccccc5)CC4)nc3)c3c(C#N)cnn3c2)cn1 [Example 26, 6-(1-methyl-1H-pyrazol-4-yl)-4-(6-(4-(2-methyl-2-phenylpropanoyl)piperazin-1-yl)pyridin-3-yl)pyrazolo[1,5-a]pyridine-3-carbonitrile]
  IC50: 476 nM

## Cn1cc(-c2cc(-c3ccc(N4CCN(C(=O)C5(c6ccccc6)CCC5)CC4)nc3)c3c(C#N)cnn3c2)cn1 [Example 27, 6-(1-methyl-1H-pyrazol-4-yl)-4-(6-(4-(1-phenylcyclobutane-1-carbonyl)piperazin-1-yl)pyridin-3-yl)pyrazolo[1,5-a]pyridine-3-carbonitrile]
  IC50: 651 nM

## CC(C)C(C(=O)N1CCN(c2ccc(-c3cc(-c4cnn(C)c4)cn4ncc(C#N)c34)cn2)CC1)c1ccccc1 (stereo not drawn) [Example 29, 6-(1-methyl-1H-pyrazol-4-yl)-4-(6-(4-(3-methyl-2-phenylbutanoyl)piperazin-1-yl)pyridin-3-yl)pyrazolo[1,5-a]pyridine-3-carbonitrile]
  IC50: 607 nM

## Cn1cc(C(=O)N2CCN(c3ccc(-c4cc(-c5cnn(C)c5)cn5ncc(C#N)c45)cn3)CC2)cn1 [Example 35, 6-(1-methyl-1H-pyrazol-4-yl)-4-(6-(4-(1-methyl-1H-pyrazole-4-carbonyl)piperazin-1-yl)pyridin-3-yl)pyrazolo[1,5-a]pyridine-3-carbonitrile 2,2,2-trifluoroacetate]
  IC50: 437 nM

## Cn1cnc(C(=O)N2CCN(c3ccc(-c4cc(-c5cnn(C)c5)cn5ncc(C#N)c45)cn3)CC2)c1 [Example 36, 4-(6-(4-(1-methyl-1H-imidazole-4-carbonyl)piperazin-1-yl)pyridin-3-yl)-6-(1-methyl-1H-pyrazol-4-yl)pyrazolo[1,5-a]pyridine-3-carbonitrile bis(2,2,2-trifluoroacetate)]
  IC50: 212 nM

## Cc1cc(C(=O)N2CCN(c3ccc(-c4cc(-c5cnn(C)c5)cn5ncc(C#N)c45)cn3)CC2)no1 [Example 37, 6-(1-methyl-1H-pyrazol-4-yl)-4-(6-(4-(5-methylisoxazole-3-carbonyl)piperazin-1-yl)pyridin-3-yl)pyrazolo[1,5-a]pyridine-3-carbonitrile 2,2,2-trifluoroacetate]
  IC50: 91.2 nM

## Cn1cc(-c2cc(-c3ccc(N4CCN(C(=O)c5cnccn5)CC4)nc3)c3c(C#N)cnn3c2)cn1 [Example 38, 6-(1-methyl-1H-pyrazol-4-yl)-4-(6-(4-(pyrazine-2-carbonyl)piperazin-1-yl)pyridin-3-yl)pyrazolo[1,5-a]pyridine-3-carbonitrile 2,2,2-trifluoroacetate]
  IC50: 396 nM

## Cn1cc(-c2cc(-c3ccc(N4CCN(C(=O)Cc5c(F)cccc5F)CC4)nc3)c3c(C#N)cnn3c2)cn1 [Example 39, 4-(6-(4-(2-(2,6-difluorophenyl)acetyl)piperazin-1-yl)pyridin-3-yl)-6-(1-methyl-1H-pyrazol-4-yl)pyrazolo[1,5-a]pyridine-3-carbonitrile 2,2,2-trifluoroacetate]
  IC50: 83.9 nM

## Cc1nn(C)cc1C(=O)N1CCN(c2ccc(-c3cc(-c4cnn(C)c4)cn4ncc(C#N)c34)cn2)CC1 [Example 41, 4-(6-(4-(1,3-dimethyl-1H-pyrazole-4-carbonyl)piperazin-1-yl)pyridin-3-yl)-6-(1-methyl-1H-pyrazol-4-yl)pyrazolo[1,5-a]pyridine-3-carbonitrile 2,2,2-trifluoroacetate]
  IC50: 871 nM
